Values after ≈ are worked out from the molar mass of the structure shown.
What was measured:
Format in all cases: cell-based
Candida krusei ATCC6258 = assay: Fungus panel screening, CLSI broth microdilution; details: Pichia kudriavzevii; for MIC50: 50% inhibition by visual inspection (CLSI); for MIC: 100% inhibition by visual inspection (CLSI), read-out: MIC100
Protocol: (§1) Fungus panel screening was conducted by Eurofins Panlabs Inc. The MIC and MIC50 values of the test articles were determined following the guidelines of the CLSI: broth microdilution methods for yeast (CLSI M27-A2), (CLSI, 2002) and for filamentous fungi (CLSI M38-A), (CLSI, 2008).

[1] = test system: Chaectomium globosum ATCC44699; assay: Fungus panel screening, CLSI broth microdilution; details: for MIC50: 50% inhibition by visual inspection (CLSI); for MIC: 100% inhibition by visual inspection (CLSI), read-out: MIC100
Protocol: as §1

[2] = test system: Candida albicans ATCC10231; assay: Fungus panel screening, CLSI broth microdilution; details: for MIC50: 50% inhibition by visual inspection (CLSI); for MIC: 100% inhibition by visual inspection (CLSI), read-out: MIC100
Protocol: as §1

[3] = test system: Aspergillus flavus ATCC204304; assay: Fungus panel screening, CLSI broth microdilution; details: for MIC50: 50% inhibition by visual inspection (CLSI); for MIC: 100% inhibition by visual inspection (CLSI), read-out: MIC100
Protocol: as §1

[4] = test system: Trichophyton rubrum ATCC10218; assay: Fungus panel screening, CLSI broth microdilution; details: for MIC: 100% inhibition by visual inspection (CLSI), read-out: MIC100; for MIC50: 50% inhibition by visual inspection (CLSI)
Protocol: as §1

[5] = test system: Penicillium chrysogenum ATCC9480; assay: Fungus panel screening, CLSI broth microdilution; details: for MIC50: 50% inhibition by visual inspection (CLSI); for MIC: 100% inhibition by visual inspection (CLSI), read-out: MIC100
Protocol: as §1

[6] = test system: Rhizopus oryzae ATCC11145; assay: Fungus panel screening, CLSI broth microdilution; details: Rhizopus arrhizus; for MIC50: 50% inhibition by visual inspection (CLSI); for MIC: 100% inhibition by visual inspection (CLSI), read-out: MIC100
Protocol: as §1

[7] = test system: Cryptococcus neoformans ATCC24067; assay: Fungus panel screening, CLSI broth microdilution; details: for MIC50: 50% inhibition by visual inspection (CLSI); for MIC: 100% inhibition by visual inspection (CLSI), read-out: MIC100
Protocol: as §1

[8] = test system: Aureobasidium pullulans ATCC9348; assay: Fungus panel screening, CLSI broth microdilution; details: for MIC50: 50% inhibition by visual inspection (CLSI); for MIC: 100% inhibition by visual inspection (CLSI), read-out: MIC100
Protocol: as §1

[9] = test system: Candida glabrata AT0036583; assay: Fungus panel screening, CLSI broth microdilution; details: Nakaseomyces glabratus; for MIC50: 50% inhibition by visual inspection (CLSI); for MIC: 100% inhibition by visual inspection (CLSI), read-out: MIC100
Protocol: as §1

[10] = test system: Candida albicans 20183.073; assay: Fungus panel screening, CLSI broth microdilution; details: for MIC50: 50% inhibition by visual inspection (CLSI); for MIC: 100% inhibition by visual inspection (CLSI), read-out: MIC100
Protocol: as §1

Candida glabrata 20197.1 = assay: Fungus panel screening, CLSI broth microdilution; details: Nakaseomyces glabratus; for MIC50: 50% inhibition by visual inspection (CLSI); for MIC: 100% inhibition by visual inspection (CLSI), read-out: MIC100
Protocol: as §1

[11] = test system: Fusarium graminerarum ATCC16106; assay: Fungus panel screening, CLSI broth microdilution; details: for MIC50: 50% inhibition by visual inspection (CLSI); for MIC: 100% inhibition by visual inspection (CLSI), read-out: MIC100
Protocol: as §1

[12] = test system: Candida albicans 20240.047; assay: Fungus panel screening, CLSI broth microdilution; details: for MIC50: 50% inhibition by visual inspection (CLSI); for MIC: 100% inhibition by visual inspection (CLSI), read-out: MIC100
Protocol: as §1

[13] = test system: Aspergillus fumigatus NCPF7100; assay: Planktonic fungus growth: broth microdilution assay (NCPF7100); details: Aspergillus fumigatus, NCPF7100, read-out: MIC75 Values against Aspergillus fumigatus isolate NCPF7100
[14] = test system: Aspergillus fumigatus NCPF2010; assay: Planktonic fungus growth: broth microdilution assay (NCPF2010); details: Aspergillus fumigatus, NCPF2010, n = 2-3, read-out: MIC75 Values against Aspergillus fumigatus isolate NCPF2010
Protocol: This assay was conducted using a modified method published by EUCAST (Rodriguez-Tudela, et al., 2008). Spores of Aspergillus fumigatus (NCPF2010, NCPF7010 [methionine 220 mutation], NCPF7099 [Glycine G54 mutation]) from Public Health England, Wiltshire; TR34/L98H mutants from St Louis Hospital, Paris, France; TR46/Y121F/T289A mutants from University of Delhi, Delhi, India) were cultured in Sabouraud dextrose agar for 3 days. A stock spore suspension was prepared from a Sabouraud dextrose agar culture by washing with PBS-tween (10 mL; phosphate buffered saline containing 0.05% Tween-20, 100 U/mL penicillin and 100 U/mL streptomycin). The spore count was assessed using a Neubauer haemocytometer and then adjusted to 10^6 spores/mL with PBS. A working suspension of spores (2×10^5 spores/mL) was prepared in filter sterilised, BSA MOPS RPMI-1640 (50 mL; RPMI-1640 containing 2 mM L-glutamine, 0.5% BSA, 2% glucose, 0.165 M MOPS, buffered to pH 7 with NaOH).
For the assay, BSA MOPS RPMI-1640 (50 μL/well) was added throughout the 384-well plate (Catalogue number 353962, BD Falcon, Oxford, UK) first. Test compounds (0.5 μL DMSO solution) were then added in quadruplicate using an Integra VIAFLO 96 (Integra, Zizers, Switzerland), and mixed well using a plate mixer. Subsequently 50 μL of the working spore suspension prepared above was added to all wells except non-spore control wells. For non-spore control wells, BSA MOPS-RPMI solution (50 μL/well) was added instead. The plate was covered with a plastic lid, and incubated (35° C. with ambient air) for 48 hr. The OD of each well at 530 nm was determined using a multi-scanner (Clariostar: BMG, Buckinghamshire, UK). The percentage inhibition for each well was calculated and the MIC50, MIC75 and MIC90 values were calculated from the concentration-response curve generated for each test compound.

[15] = test system: Aspergillus fumigatus (NCPF2010); assay: Aspergillus fumigatus infection of BEAS2B bronchial epithelial cells (galactomannan); details: NCPF2010, galactomannan in supernatant, 24 hr, n = 1-3, read-out: Infection of BEAS2B cells MIC50
Protocol: BEAS2B cells were seeded in 96-well plates (100 μL; 3×10^4 cells/well; Catalogue No 3596, Sigma Aldrich, Dorset, UK) in 10% FBS RPMI-1640 and were then incubated (37° C., 5% CO2) for one day before experimentation. Test compounds (0.5 μL DMSO solution) or vehicle (DMSO) were added to each well to give a final DMSO concentration of 0.5%. BEAS2B cells were incubated with test compounds for 1 hr (35° C., 5% CO2) before infection with Aspergillus fumigatus (20 uL; Public Health England) conidia suspension (0.5×10^5/mL in 10% FBS RPMI-1640). The plate was incubated for 24 hr (35° C., 5% CO2). Supernatant (50 uL) was collected and transferred to a PCR plate (Catalogue No L1402-9700, Starlab, Milton Keynes, UK), which was frozen (−20° C.) until use. After thawing, supernatant (5 μL) was diluted 1:20 by adding R7-PBS solution (95 μL; 1:4 R7 to PBS; Bio-Rad Laboratories, Redmond, Wash., USA). Galactomannan levels in these samples (50 μL) were measured using Platelia GM-EIA kits (Bio-Rad Laboratories, Redmond, Wash., USA). The percentage inhibition for each well was calculated and the IC50 value was calculated from the concentration-response curve generated for each test compound.

SMILES	MIC50 (Candida krusei ATCC6258) [µg/mL]	MIC (Candida krusei ATCC6258) [µg/mL]	MIC50 [1] [µg/mL]	MIC [1] [µg/mL]	MIC50 [2] [µg/mL]	MIC [2] [µg/mL]	MIC50 [3] [µg/mL]	MIC [3] [µg/mL]	MIC [4] [µg/mL]	MIC50 [5] [µg/mL]	MIC [5] [µg/mL]	MIC50 [6] [µg/mL]	MIC [6] [µg/mL]	MIC50 [7] [µg/mL]	MIC [7] [µg/mL]	MIC50 [8] [µg/mL]	MIC [8] [µg/mL]	MIC50 [9] [µg/mL]	MIC [9] [µg/mL]	MIC50 [10] [µg/mL]	other results
Cc1cc(N2CCN(c3ccc(C(=O)N[C@H]4CCCC[C@@H]4O)cc3)CC2)ccc1OC[C@@H]1CO[C@@](Cn2cncn2)(c2ccc(F)cc2F)C1 [Compound (Ia), 4-(4-(4-(((3R,5R)-5-((1H-1,2,4-triazol-1-yl)methyl)-5-(2,4-difluorophenyl)tetrahydrofuran-3-yl)methoxy)-3-methylphenyl)piperazin-1-yl)-N-((1S,2S)-2-hydroxycyclohexyl) benzamide]	0.25 (≈ 0.364 µM)	0.25 (≈ 0.364 µM)	0.031 (≈ 0.0451 µM)	0.13 (≈ 0.189 µM)	0.25 (≈ 0.364 µM)	> 2	0.13 (≈ 0.189 µM)	0.13 (≈ 0.189 µM)	0.031 (≈ 0.0451 µM)	0.063 (≈ 0.0917 µM)	0.13 (≈ 0.189 µM)	0.25 (≈ 0.364 µM)	0.5 (≈ 0.728 µM)	0.016 (≈ 0.0233 µM)	0.063 (≈ 0.0917 µM)	0.25 (≈ 0.364 µM)	1 (≈ 1.46 µM)	0.25 (≈ 0.364 µM)	> 2	0.125 (≈ 0.182 µM)	MIC [10]: > 2 µg/mL; MIC50 (Candida glabrata 20197.1): 0.0078 µg/mL (≈ 0.0114 µM); MIC (Candida glabrata 20197.1): > 2 µg/mL; MIC50 [11]: 0.13 µg/mL (≈ 0.189 µM); MIC [11]: 0.5 µg/mL (≈ 0.728 µM); MIC50 [12]: 0.016 µg/mL (≈ 0.0233 µM); MIC [12]: > 2 µg/mL; MIC [13]: 0.0127 µM (≈ 8.72 ng/mL); MIC [14]: 0.00281 µM (≈ 1.93 ng/mL); MIC50 [15]: 0.00635 µM (≈ 4.36 ng/mL)
CC[C@@H]([C@H](C)O)n1ncn(-c2ccc(N3CCN(c4ccc(OC[C@@H]5CO[C@@](Cn6cncn6)(c6ccc(F)cc6F)C5)cc4)CC3)cc2)c1=O [Posaconazole, reference compound]	0.13 (≈ 0.186 µM)	0.25 (≈ 0.357 µM)	0.13 (≈ 0.186 µM)	0.25 (≈ 0.357 µM)	0.13 (≈ 0.186 µM)	> 8	0.063 (≈ 0.0899 µM)	0.13 (≈ 0.186 µM)	0.031 (≈ 0.0442 µM)	0.063 (≈ 0.0899 µM)	0.13 (≈ 0.186 µM)	0.13 (≈ 0.186 µM)	> 8	0.016 (≈ 0.0228 µM)	0.25 (≈ 0.357 µM)	0.25 (≈ 0.357 µM)	1 (≈ 1.43 µM)	0.5 (≈ 0.713 µM)	> 8	0.25 (≈ 0.357 µM)	MIC50 [4]: < 0.008 µg/mL; MIC [10]: > 8 µg/mL; MIC50 (Candida glabrata 20197.1): 0.031 µg/mL (≈ 0.0442 µM); MIC (Candida glabrata 20197.1): > 8 µg/mL; MIC50 [11]: > 8 µg/mL; MIC [11]: > 8 µg/mL; MIC50 [12]: 0.031 µg/mL (≈ 0.0442 µM); MIC [12]: > 8 µg/mL; MIC [13]: 0.0597 µM (≈ 41.8 ng/mL); MIC [14]: 0.0109 µM (≈ 7.64 ng/mL); MIC50 [15]: 0.0116 µM (≈ 8.13 ng/mL)
C[C@@H](c1ncncc1F)[C@](O)(Cn1cncn1)c1ccc(F)cc1F [Voriconazole]	0.25 (≈ 0.716 µM)	1 (≈ 2.86 µM)	0.5 (≈ 1.43 µM)	1 (≈ 2.86 µM)	0.25 (≈ 0.716 µM)	> 8	1 (≈ 2.86 µM)	2 (≈ 5.73 µM)	0.063 (≈ 0.18 µM)	1 (≈ 2.86 µM)	2 (≈ 5.73 µM)	8 (≈ 22.9 µM)	> 8	0.016 (≈ 0.0458 µM)	1 (≈ 2.86 µM)	> 8	> 8	0.25 (≈ 0.716 µM)	> 8	4 (≈ 11.5 µM)	MIC50 [4]: < 0.008 µg/mL; MIC [10]: > 8 µg/mL; MIC50 (Candida glabrata 20197.1): 0.031 µg/mL (≈ 0.0887 µM); MIC (Candida glabrata 20197.1): > 8 µg/mL; MIC50 [11]: > 8 µg/mL; MIC [11]: > 8 µg/mL; MIC50 [12]: 0.031 µg/mL (≈ 0.0887 µM); MIC [12]: > 8 µg/mL; MIC [13]: 0.543 µM (≈ 190 ng/mL); MIC [14]: 0.511 µM (≈ 179 ng/mL); MIC50 [15]: 0.154 µM (≈ 53.8 ng/mL)
